pIC50: −log10 of the molar value.
What was measured:
IMP-1 = IMP-1 (Serratia marcescens, UniProt P52699); assay: biochemical; settings: CCF2-FA fluorescence assay, 2 hours at 25° C.; read-out: IMP1 IC50
Procedure: (§1) The Class B enzyme activities were measured in the presence of the test inhibitor in a fluorescence assay against a commercially available substrate consisting of a cephalosporin core linking 7-hydroxycoumarin to fluorescein (CCF2-FA). The enzyme (NDM-1, IMP-1 or VIM-1) and the substrate were diluted in 100 mM KH2PO4 buffer (pH 7) containing 0.005% Tween-20 and 10 μM ZnSO4. In the assay, the final concentration of enzyme was 1 pM, 2 pM and 30 pM for NDM-1, IMP-1 and VIM-1, respectively, and the final concentration of CCF2-FA was 1.25 μM. The test inhibitor was dissolved in dimethylsulfoxide and diluted 1:50 in the assay, resulting in a final concentration range of 20 μM to 0.00063 μM. In a 384-well microplate, the test inhibitor was incubated with the metallo-β-lactamase enzyme and the substrate for 2 hours at 25° C. Fluorescence at 460 nm following excitation at 405 nm was measured. The IC50 value was determined from semi-logarithmic plots of enzyme inhibition versus inhibitor concentration, with a curve generated using a 4-parameter fit.

VIM-1 = VIM-1 (Pseudomonas aeruginosa (strain ATCC 15692 / DSM 22644 / CIP 104116 / JCM 14847 / LMG 12228 / 1C / PRS 101 / PAO1), UniProt A0A0F7KYQ8); assay: biochemical; settings: CCF2-FA fluorescence assay, 2 hours at 25° C.; read-out: VIM1 IC50
Procedure: as §1

[1] = test system: Serratia marcescens expressing IMP-1 (CL5741); format: cell-based; settings: with imipenem 1 μg/ml; 95% inhibition of bacterial growth
Procedure: (§2) The bacterial strains tested included the clinical strains Escherichia coil expressing NDM-1 (CLB30005, CLB30016), Serratia marcescens expressing IMP-1 (CL5741), and Klebsiella pneumoniae expressing VIM-1 (H-LMA599644). Inhibitor activity was measured in the presence and absence of imipenem in a 384-well microplate.
(§3) The clinical strains CLB30016, CL5741 and IHMA599644 were grown on trypticase soy agar containing 5% sheep's blood. The bacteria on agar plates were incubated at 35° C. with humidity overnight. The following day, individual colonies from each clinical strain were picked and resuspended in 5 ml saline to attain an OD600 of […], for CLB30016, C15741 and IHMA599644, respectively. These were further diluted 1:100 into 1.1× CAMHB and used to inoculate the test wells as described below.
(§4) Imipenem in 10 mM 3-(N-morpholino)propanesulfonic acid (MOPS, pH 7) was stored in single use aliquots at −80° C. […] On the day of the assay, 4 μl of antibiotic was added to 45 μl of bacteria followed by 1 μl of test compound and mixed by pipetting and with an orbital shaker. The concentration of antibiotic used in the assay was 1 μg/ml. Microplates were covered and incubated at 35° C. for 22 hours to 24 hours. At the end of the incubation, absorbance was determined using a spectrophotometer. The synergistic concentration of MBLI was determined by identifying the lowest concentration of test compound in the presence of a given concentration of antibiotic that was required to inhibit 95% of the growth of the bacteria. The results for Examples 1-209 are reported in Table 1, expressed as the concentration of compound that potentiated the action of antibiotic (imipenem) affecting 95% inhibition of bacterial growth (MITC95).

[2] = test system: Klebsiella pneumoniae expressing VIM-1 (IHMA599644); format: cell-based; settings: with imipenem 1 μg/ml; 95% inhibition of bacterial growth
Procedure: as §2, §3, §4

[3] = test system: Escherichia coli expressing NDM-1 (CLB30016); format: cell-based; settings: with imipenem 1 μg/ml; 95% inhibition of bacterial growth
Procedure: as §2, §3, §4

[4] = test system: P. aeruginosa MB9798 (efflux+, IMP-1 plasmid); settings: for MB9798 MITC95 P. aeruginosa uM Efflux WT: efflux + (MB9798) strain, imipenem at 2 μg/mL, in the presence of a class A, C, D serine β-lactamase inhibitor closely related to relebactam; for Efflux ratio: fold difference between efflux+ (MB9798) and efflux− (MB9799) strains
From the text: (§5) The strain background is Pseudomonas aeruginosa PAO1. A wild-type (M135919) and an isogenic strain in which multiple efflux pumps have been disrupted genetically were used. The MBL IMP-1, obtained from a clinical isolate was introduced into the strain pair by the following process:
(§6) The plasmid DNA was transformed into parental MB5919 (oprD+, efflux+, inducible AmpC) and MB5890 (oprD+, efflux−, inducible AmpC) isogenic strains by electroporation.
(§7) The strain set was then used as a pair to determine the effect of metallo-β-lactamase inhibitors of Formula I on the MIC of imipenem and/or ceftazidime. A fixed concentration of antibiotic is included in standard microbroth MIC tests, usually at the CLSI breakpoint concentration, A fixed amount of a class A/C beta-lactamase inhibitor is also included to inhibit the resident Pseudomonas AmpC enzyme. A serial titration of the metallo-β-lactamase inhibitor was included and the concentration of metallo-β-lactamase inhibitor which restores susceptibility of the strain to the included antibiotic was recorded. That concentration of metallo-β-lactamase inhibitor was then compared between the two strains to determine the fold difference between the efflux+(MB9798) and efflux−(MI39799) strains, which indicates the extent to which the MBLi is subject to efflux.

[5] = test system: P. aeruginosa MB9799 (efflux-, IMP-1 plasmid); format: cell-based, Pseudomonas aeruginosa; settings: efflux − (MB9799) strain; imipenem at 2 μg/mL; in the presence of a class A, C, D serine β-lactamase inhibitor closely related to relebactam
From the text: as §5, §6, §7

VIM-2 = VIM-2 (Escherichia coli, UniProt Q5U7L7); assay: biochemical; settings: CCF2-FA fluorescence assay; read-out: VIM2 IC50
NDM-1 = NDM-1 (Klebsiella pneumoniae, UniProt C7C422); assay: biochemical; format: biochemical; settings: CCF2-FA fluorescence assay, 2 hours at 25° C.
Procedure: as §1

NDM-1, sequence (C7C422 whole entry, looked up, species assumed): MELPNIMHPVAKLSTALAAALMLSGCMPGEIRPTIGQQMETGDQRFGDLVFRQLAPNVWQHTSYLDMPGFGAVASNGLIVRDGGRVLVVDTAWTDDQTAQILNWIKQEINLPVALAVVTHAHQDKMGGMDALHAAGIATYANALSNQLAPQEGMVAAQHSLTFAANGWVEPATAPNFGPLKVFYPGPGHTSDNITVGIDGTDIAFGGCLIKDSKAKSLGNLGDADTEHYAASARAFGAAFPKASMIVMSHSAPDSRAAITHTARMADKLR
IMP-1, sequence (P52699 whole entry, looked up, species assumed): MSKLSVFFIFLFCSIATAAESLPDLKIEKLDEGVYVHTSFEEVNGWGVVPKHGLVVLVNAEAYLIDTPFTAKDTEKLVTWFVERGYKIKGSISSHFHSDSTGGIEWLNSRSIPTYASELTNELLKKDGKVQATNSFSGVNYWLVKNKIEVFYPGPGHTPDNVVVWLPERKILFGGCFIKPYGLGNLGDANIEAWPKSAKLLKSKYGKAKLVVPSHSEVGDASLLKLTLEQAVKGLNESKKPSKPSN

SMILES | pIC50 (IMP-1) | pIC50 (VIM-1) | CL5741 S. marcescens MITC95 IMP [1] | IHMA599644 K. pneumoniae MITC95 VIM [2] | CLB30016 E. coli MITC95 NDM [3] | MB9798 MITC95 P. aeruginosa uM Efflux WT [4] | Efflux ratio [4] | MB9799 MITC95 P. aeruginosa uM Efflux Mutant [5] | pIC50 (VIM-2) | pIC50 (NDM-1)
NC[C@@H](O)CNS(=O)(=O)c1ccc(N2CC[C@@H](N)[C@@H](F)C2)c(-c2nn[nH]n2)c1S(N)(=O)=O (single isomer, unassigned) [Example 1] | 8.30 | 9.51 | 0.20 µM | 0.39 µM | 0.10 µM | 0.78 µM | 2.00 | 0.39 µM | 8.45 | 
NCCS(=O)(=O)c1ccc(N2CCCCC2)c(-c2nnn[nH]2)c1S(N)(=O)=O [Example 14] | 8.87 | 9.14 | 2.34 µM | 2.34 µM | 0.78 µM | 12.50 µM | 16.00 | 0.78 µM |  | 8.40
NCCS(=O)(=O)c1ccc(N2CCOCC2)c(-c2nnn[nH]2)c1S(N)(=O)=O [Example 15] | 8.19 | 8.60 | 3.13 µM | 3.13 µM | 1.56 µM | 12.50 µM | 8.00 | 1.56 µM |  | 7.94
N[C@@H]1CCCN(c2ccc(S(=O)(=O)C3CNC3)c(S(N)(=O)=O)c2-c2nnn[nH]2)C1 [Example 28, (R)-3-(3-aminopiperidin-1-yl)-6-(azetidin-3-ylsulfonyl)-2-(1H-tetrazol-5-yl)benzenesulfonamide] | 6.33 | 7.43 | 6.25 µM | 1.56 µM | 0.78 µM | 50.00 µM | 8.00 | 6.25 µM |  | 7.21
N[C@H]1CCCN(c2ccc(S(=O)(=O)C3CNC3)c(S(N)(=O)=O)c2-c2nnn[nH]2)C1 [Example 29, (S)-3-(3-aminopiperidin-1-yl)-6-(azetidin-3-ylsulfonyl)-2-(1H-tetrazol-5-yl)benzenesulfonamide] | 6.64 | 8.02 | 6.25 µM | 0.78 µM | 1.56 µM | 25.00 µM | 8.00 | 3.13 µM |  | 7.07
NS(=O)(=O)c1c(S(=O)(=O)C2CNC2)ccc(N2CCC3(CCNCC3)CC2)c1-c1nnn[nH]1 [Example 30, 6-(azetidin-3-ylsulfonyl)-3-(3,9-diazaspiro[5.5]undecan-3-yl)-2-(1H-tetrazol-5-yl)benzenesulfonamide] | 8.28 | 8.70 | 1.56 µM | 1.56 µM | 0.78 µM | 1.56 µM | 2.00 | 0.78 µM |  | 8.58
NC1CCCN(c2ccc(S(=O)(=O)C3CNC3)c(S(N)(=O)=O)c2-c2nnn[nH]2)CC1 (stereo not drawn) [Example 32, 3-(4-aminoazepan-1-yl)-6-(azetidin-3-ylsulfonyl)-2-(1H-tetrazol-5-yl)benzenesulfonamide] | 6.72 | 8.67 | 3.13 µM | 1.56 µM | 6.25 µM | 12.50 µM | 4.00 | 3.13 µM |  | 6.91
NC1CCCCN(c2ccc(S(=O)(=O)C3CNC3)c(S(N)(=O)=O)c2-c2nnn[nH]2)C1 (stereo not drawn) [Example 33, 3-(3-aminoazepan-1-yl)-6-(azetidin-3-ylsulfonyl)-2-(1H-tetrazol-5-yl)benzenesulfonamide] | 6.86 | 8.35 | 3.13 µM | 0.78 µM | 1.56 µM | 25.00 µM | 8.00 | 3.13 µM |  | 6.96
NS(=O)(=O)c1ccc(N2CCC3(CCNCC3)C2=O)c(-c2nn[nH]n2)c1S(N)(=O)=O [Example 134, 4-(1-oxo-2,8-diazaspiro[4.5]decan-2-yl)-3-(2H-tetrazol-5-yl)benzene-1,2-disulfonamide] | 6.32 | 7.20 | 12.50 µM | 6.25 µM | 6.25 µM | 50.00 µM | 8.00 | 6.25 µM |  | 6.74

— US11207312B2, “Metallo-beta-lactamase inhibitors and methods of use thereof” (priority 2017, dated 2021)
